Reference: PubChem BioAssay AID2127 (Sanford-Burnham Center for Chemical Genomics, 2009)
The source made the active and inactive calls.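 Rule for the calls: active = half-maximal inhibitory concentration below a set limit; inactive = the rest.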

What follows are molecules tested against E3 ubiquitin-protein ligase SIAH1 (Homo sapiens) (UniProt Q8IUQ4) (assay: Siah-1 peptide-binding antagonists, alternate label, dose response, artefact control for Siah-1 antagonist project, biochemical, fluorescence polarization, fluorescein-plectin (AID 2127)). Settings: Siah-1/fluorescein-plectin binding.

SMILES | IC50
O=c1[nH]c2ccc(S(=O)(=O)N3CCCCC3)cc2s1 | > 200 µM (inactive)
CCn1c(O)c(C=Nc2ccc(N3CCOCC3)cc2)c(=O)n(CC)c1=S | 13.9 µM
O=C(O)CCCCN1C(=O)/C(=C\c2ccc(OCc3ccccc3)c(OCc3ccccc3)c2)SC1=S | > 200 µM (inactive)
N#C/C(=C\c1c(F)cccc1Cl)C(=O)NC1CC1 | > 200 µM (inactive)
O=C(Nc1ccc(Oc2ccsc2C(=O)O)cc1)c1ccccc1F | > 200 µM (inactive)
NS(=O)(=O)c1ccc(NS(=O)(=O)c2ccc(NC(=O)c3ccc(-c4ccccc4)cc3)cc2)cc1 | > 200 µM (inactive)
CCCCNc1c2c3c(cccc3n(C)c1=O)C(=O)c1ccccc1-2 | > 200 µM (inactive)
Cc1ccc(C(=O)NC2CC3CCCC(C2)N3C(=O)NC2CCCCC2)cc1 (centres undefined) | > 200 µM (inactive)
O=C1C=C(NCc2ccccc2)c2ccccc2C1=O | > 200 µM (inactive)
O=C(O)CCN1C(=O)/C(=C/c2cn(-c3ccccc3)nc2-c2cccs2)SC1=S | > 200 µM (inactive)
Cc1ccc2c(c1)N(CC(=O)NCCc1ccc(Cl)cc1)C(=O)c1cccnc1O2 | > 200 µM (inactive)
CN(C)CCOC(=O)CCc1ccccc1 | > 200 µM (inactive)
O=C(Cn1cnc2scc(-c3ccccc3)c2c1=O)NCc1ccco1 | > 200 µM (inactive)
NS(=O)(=O)c1ccc(NC(=O)c2cccc(N3C(=O)c4ccccc4C3=O)c2)cc1 | > 200 µM (inactive)
Cc1cc(C)c(C#N)c(Nc2ccccc2C)n1 | > 200 µM (inactive)
Cc1cc(Cl)ccc1NC(=O)CN1CCC(C(O)(c2ccccc2)c2ccccc2)CC1 | > 200 µM (inactive)
O=c1ccc2c(-c3ccccc3)c3ccc(O)cc3oc-2c1 | > 200 µM (inactive)
Cc1cc(C)n(-c2ccc(Cl)c(C(=O)Nc3cc(C(F)(F)F)ccc3Cl)n2)n1 | > 200 µM (inactive)
CCOc1cc(/C=C(\C#N)C(=O)Nc2ccccc2C(=O)O)ccc1OC(=O)c1ccc(C)cc1 | > 200 µM (inactive)
Oc1ccc(N=Cc2sc3ccccc3c2Cl)cc1 | > 200 µM (inactive)
COC(=O)c1cccc(Cn2c(Cl)c(/C=N/NC(=O)c3ccccc3Cl)sc2=O)c1 | > 200 µM (inactive)
CN(C)c1cccc2c(C=C(C#N)C#N)ccc(N(C)C)c12 | > 200 µM (inactive)
O=C(N/N=C/c1ccc(OC(=O)c2cccs2)cc1)c1cccc(F)c1 | > 200 µM (inactive)
COC/C=C/C1=CC2=CC(=O)C(C)(OC(=O)c3ccco3)C(=O)C2=CO1 (centres undefined) | > 200 µM (inactive)

SMILES | IC50
Cc1ccn2c(C(=O)CSc3ccc(Cl)cc3Cl)c(C)nc2c1 | > 200 µM (inactive)
CC[n+]1c(/C=C/N(C)c2ccccc2)sc2ccc(Cl)cc21 | > 200 µM (inactive)
S=c1[nH]nc(Cc2cccc3ccccc23)n1-c1ccccc1 | > 200 µM (inactive)
CC1CCN(C(=O)C2CCC(C)(C(=O)O)C2(C)C)CC1 (centres undefined) | > 200 µM (inactive)
COc1ccc(CNC(=S)Nc2cc(OC)ccc2OC)cc1 | > 200 µM (inactive)
O=C(Nc1nc(-c2cc3ccccc3oc2=O)cs1)c1ccco1 | > 200 µM (inactive)
CCN(CC)CCOC(=O)c1ccc(N/C=C(/C#N)c2nc(-c3cc4ccccc4oc3=O)cs2)cc1 | > 200 µM (inactive)
CCCCn1c(NC(=O)c2ccco2)c(S(=O)(=O)c2ccc(C)cc2)c2nc3ccccc3nc21 | > 200 µM (inactive)
CCN(CC)c1ccc(C=N/C(C#N)=C(\N)C#N)cc1 | > 200 µM (inactive)
O=C(Nc1cc([N+](=O)[O-])ccc1N1CCOCC1)c1cccs1 | > 200 µM (inactive)
C[N+]1(CCNC(=O)/C=N/O)CCCCC1 | > 200 µM (inactive)
CC(=O)c1ccc(S(=O)(=O)Nc2ccc(-c3ccc4nnc(C)n4n3)cc2)cc1 | > 200 µM (inactive)
COCCn1nnnc1C(c1cc2ccc(OC)cc2[nH]c1=O)N1CCc2ccccc2C1 (centres undefined) | > 200 µM (inactive)
O=S(=O)(O)c1cc(O)c2c(O)c(N=Nc3cc(Cl)ccc3O)c(S(=O)(=O)O)cc2c1 | > 200 µM (inactive)
CCC(C)[C@H](NC(=O)N1CCn2c1nc1ccccc12)C(=O)NCCc1ccc(OC)c(OC)c1 (some centres undefined) | > 200 µM (inactive)
O=C(CCN1CCN(Cc2ccccc2)CC1)Nc1cccc(Cl)c1 | > 200 µM (inactive)
Nc1c(C(=O)NCc2ccco2)c2nc3ccccc3nc2n1CCc1ccccc1 | > 200 µM (inactive)
COC(=O)c1c(C(=O)OC)c2cccc3cc(-c4ccccc4)c4ccc1c4n32 | inactive
O=C(NCc1c(F)cccc1F)c1cc(COc2c(F)cccc2F)on1 | > 200 µM (inactive)
CCc1nnc(NS(=O)(=O)c2ccc(NC(=S)NC(=O)/C=C/c3ccc(C(C)C)cc3)cc2)s1 | > 200 µM (inactive)
CC1=C(C#N)c2nc(N)c(C#N)c(C)c2/C1=C\c1ccc(-c2ccccc2C(=O)O)o1 | > 200 µM (inactive)
CC(=O)c1ccc(NC(=O)CC2Nc3cccc4cccc(c34)NC2=O)cc1 (centres undefined) | > 200 µM (inactive)
COc1cc(NS(=O)(=O)c2ccc(NC(=S)NC(=O)/C=C/c3ccc(F)cc3)cc2)ncn1 | > 200 µM (inactive)
O=c1[nH]c(-c2ccc(F)cc2)nc2c1sc(=S)n2-c1ccccc1 | > 200 µM (inactive)

SMILES | IC50
CC1CCN(S(=O)(=O)c2ccc3c(c2)c(=O)c(C(=O)NCc2ccccc2Cl)cn3C)CC1 | > 200 µM (inactive)
CCCCn1c(NS(=O)(=O)c2ccc(C)cc2)c(S(=O)(=O)c2ccccc2)c2nc3ccccc3nc21 | > 200 µM (inactive)
c1ccc(C(c2ccccc2)N2CCN(C(c3ccccn3)c3nnnn3C3CCCC3)CC2)cc1 (centres undefined) | > 200 µM (inactive)
O=C(O)CCCNc1cc(N2CCN(C(=O)c3ccco3)CC2)c2noc3c2c1C(=O)c1ccccc1-3 | 10.9 µM
CCN(CC)CCOC(=O)c1ccc(N/C=C(/C#N)c2nc(-c3ccc(OC)c(OC)c3)cs2)cc1 | > 200 µM (inactive)
CSc1n[nH]c(NCc2ccc(Cl)cc2)n1 | > 200 µM (inactive)
O=C(Nc1ccccc1N1CCCCC1)c1ccc(-c2cccc(Cl)c2)o1 | > 200 µM (inactive)
CCCCNc1nnc(Cc2ccc(Cl)cc2)c(=O)[nH]1 | > 200 µM (inactive)
O=C(/C=C/c1ccco1)OCc1nnc(-c2ccccc2)o1 | > 200 µM (inactive)
COc1cccc2cc(C(=O)N3CCc4ccccc43)c(=O)oc12 | > 200 µM (inactive)
COc1ccc(CCNC(=O)CCC(=O)N2CCOc3ccc(C)cc32)cc1OC | > 200 µM (inactive)
CCOC(=O)/C(C#N)=c1/s/c(=C2\C=Cc3ccccc3N2CC)c(=O)n1CC | > 200 µM (inactive)
CC(C)COc1ccc(-c2nn(-c3ccccc3)cc2/C=C2/SC(=S)N(CC(=O)O)C2=O)cc1 | > 200 µM (inactive)
Cc1ccc(OCCCN2CCOCC2)cc1 | > 200 µM (inactive)
CCNc1ccc(C(=O)O)cc1N | inactive
Cc1c(C(=O)O)sc2nc(CSc3ncc(C(F)(F)F)cc3Cl)[nH]c(=O)c12 | > 200 µM (inactive)
CCCCn1c(NS(=O)(=O)c2ccccc2)c(C(=O)OCC)c2nc3ccccc3nc21 | > 200 µM (inactive)
CC(=O)Nc1ccc(N=Cc2c(O)c(C(=O)Nc3ccccc3)cc3ccccc23)cc1 | 4.98 µM
Cc1ccc(NC(=O)CCC(=O)NNC(=O)c2ccccc2[N+](=O)[O-])c(C)c1 | > 200 µM (inactive)
Oc1ccc(N=Cc2ccc(OCc3ccccc3)cc2)cc1 | > 200 µM (inactive)
CCOc1ccccc1CNc1ccc(O)cc1 | > 200 µM (inactive)
Cc1cc(C)nc(N=Nc2c(O)n(Cc3ccc(Cl)cc3)c3ccccc23)n1 | > 200 µM (inactive)
O=C(Nc1ccc(Br)cc1)c1ccc(N2C(=O)C3CC=CCC3C2=O)cc1 (centres undefined) | > 200 µM (inactive)
C=CCn1c(NS(=O)(=O)c2ccccc2)c(S(=O)(=O)c2ccc(C)cc2)c2nc3ccccc3nc21 | > 200 µM (inactive)

SMILES | IC50
Cc1ccc(S(=O)(=O)NN=C2C3CC4CC(C3)CC2C4)cc1[N+](=O)[O-] | > 200 µM (inactive)
O=C(Nc1ccc(Cl)cc1)c1ccc(S(=O)(=O)N2CCOCC2)cc1 | > 200 µM (inactive)
CCCCn1c(NS(=O)(=O)c2ccccc2)c(S(=O)(=O)c2ccc(C)cc2)c2nc3ccccc3nc21 | > 200 µM (inactive)
CC(C)(C)c1cc(-c2csc(Nc3ccccc3)[n+]2Cc2ccc(C(=O)O)cc2)cc(C(C)(C)C)c1O | > 200 µM (inactive)
CC1(C)OC(C)(C)/C(=C/Nc2ccc(O)cc2)C1=O | > 200 µM (inactive)
COc1cc(CNc2ccc(O)cc2)cc(Br)c1OCc1ccccc1F | > 200 µM (inactive)
CCOC(=O)c1c(C)[nH]c2c1-c1ccccc1C(=O)C2=O | > 200 µM (inactive)
CCN(CC)c1ccc(/C=c2\sc3nnc(-c4ccccc4Cl)n3c2=O)cc1 | > 200 µM (inactive)
CCOC(=O)C1=C(C)N=c2s/c(=C\c3ccc(OCC(=O)O)cc3)c(=O)n2C1c1ccc(Cl)cc1 (centres undefined) | > 200 µM (inactive)
Cc1c(Cc2ccccc2)c(=O)oc2c(C)c(OCC(=O)N[C@@H](Cc3ccccc3)C(=O)O)ccc12 | > 200 µM (inactive)
COc1cc(CC(=O)NCc2ccc3c(c2)OCO3)cc(OC)c1OC | > 200 µM (inactive)
O=C(Nc1ccc(Cl)cc1)OCc1cn(-c2ccccc2)nn1 | > 200 µM (inactive)
COC(=O)c1cc(NC(=O)c2ccccc2)c(=O)oc1/C=C/Nc1ccc(Oc2ccccc2)cc1 | > 200 µM (inactive)
Fc1ccc(/C=N/NC(=S)Nc2cccnc2)cc1F | > 200 µM (inactive)
COc1ccc(N=C2NC(=O)S/C2=C\c2ccc(N(C)C)cc2)cc1 | inactive
O=S(=O)(Nc1cc2nc3ccccc3nc2n1Cc1ccccc1)c1ccc(Cl)cc1 | > 200 µM (inactive)
Oc1c(Br)cc(Br)cc1CNc1ccc(F)cc1 | > 200 µM (inactive)
C=CCc1cccc2cc(C(=O)Nc3ccc(CC(=O)O)cc3)c(=O)oc12 | > 200 µM (inactive)
CN1C(=O)NC(c2ccccc2[N+](=O)[O-])C2=C1CCCC2=O (centres undefined) | 5.41 µM
COc1cc(/C=C(\C#N)c2nc3ccccc3[nH]2)ccc1OC(=O)c1ccco1 | > 200 µM (inactive)
O=C(N/N=C/c1cccc(Br)c1)c1ccc(Br)cc1 | > 200 µM (inactive)
CC1CCCCC1NC(=O)CCS(=O)(=O)c1ccc2c(c1)NC(=O)CO2 (centres undefined) | > 200 µM (inactive)
